Measurements from US4877893A, “Process for the preparation of 2-(O-alkyl)-2-thio-1,3,2-oxathiophospholanes” (priority 1987, dated 1989).

What was measured:
Experiment in all cases: Fungicidal effect on infected agar nutrient media, colony diameter
Type in all cases: cell-based
Sclerotinia sclerotinia = conditions: 3rd day after treatment, untreated control 41.7
Protocol: (§1) Agar nutrient media (Diameter 70 MM, thickness 10 mm) infected by Sclerotonia sclerotinia suspension are treated with 20 EC formulations prepared according to Example 27 and comprising 1, 10, 100 and 1000 ppm, respectively of the active ingredient of the Formula I. The fungicidal effect of the compositions is evaluated on the 3rd day after treatment by measuring the diameter of the Fungi colonies.

Penicillium cyclopium = conditions: 7th day after treatment, untreated 26.5
Protocol: as §1
The series of measureents described in Example 35 is carried out except that the agar nutrient media are infected by a Penicillium cyclopium Fungi strain and the test is evaluated on the 7th day after treatment.

Alternaria tenuis = conditions: 5th day after treatment, untreated control 36.8
Protocol: as §1
The series of measurements according to Example 35 is carried out except that the agar nutrient media are infected by Alternaria Tenius and evaluation is accomplished on the 5th day after treatment.

SMILES	Diameter of colony (mm) (Sclerotinia sclerotinia; 1 ppm)	Diameter of colony (mm) (Sclerotinia sclerotinia; 10 ppm)	Diameter of colony (mm) (Sclerotinia sclerotinia; 100 ppm)	Diameter of colony (mm) (Sclerotinia sclerotinia; 1000 ppm)	Diameter of colony (mm) (Penicillium cyclopium; 1 ppm)	Diameter of colony (mm) (Penicillium cyclopium; 10 ppm)	Diameter of colony (mm) (Penicillium cyclopium; 100 ppm)	Diameter of colony (mm) (Penicillium cyclopium; 1000 ppm)	Diameter of colony (mm) (Alternaria tenuis; 1 ppm)	Diameter of colony (mm) (Alternaria tenuis; 10 ppm)	Diameter of colony (mm) (Alternaria tenuis; 100 ppm)	Diameter of colony (mm) (Alternaria tenuis; 1000 ppm)
CC(CCl)OP1(=S)OC(C)CS1 (stereo not drawn) [Compound 19, 2-(0-1'-methyl-2'-chloroethyl)-2-thio-5-methyl-1,3,2-oxathiophospholane]	36.5 mm	27.4 mm	3.9 mm	0 mm	21.5 mm	15.6 mm	5.5 mm	0 mm	32.3 mm	21.7 mm	4.3 mm	0 mm
CC(CBr)OP1(=S)OC(C)CS1 (stereo not drawn) [Compound 20]	34.9 mm	28.2 mm	1.6 mm	0 mm	20.1 mm	17.7 mm	4.1 mm	0 mm	33.2 mm	25.0 mm	5.0 mm	0 mm
CC(CI)OP1(=S)OC(C)CS1 (stereo not drawn) [Compound 21, 2-(0-1'-methyl-2'-iodoethyl)-2-thio-5-methyl-1,3,2-oxathiophospholane]	33.8 mm	25.8 mm	2.50 mm	0 mm	23.7 mm	20.0 mm	6.9 mm	0 mm	30.9 mm	24.2 mm	7.2 mm	0 mm
CC(Cl)COP1(=S)OC(C)CS1 (stereo not drawn) [Compound 22, 2-(0-2'-methyl-2'-chloroethyl)-2-thio-5-methyl-1,3,2-oxathiophospholane]	37.8 mm	30.1 mm	2.9 mm	0 mm	24.6 mm	16.2 mm	6.7 mm	0 mm	34.4 mm	26.1 mm	8.7 mm	0 mm
CC(Br)COP1(=S)OC(C)CS1 (stereo not drawn) [Compound 23]	36.9 mm	29.7 mm	3.6 mm	0 mm	22.6 mm	15.8 mm	4.3 mm	0 mm	33.8 mm	24.1 mm	5.2 mm	0 mm
CC(I)COP1(=S)OC(C)CS1 (stereo not drawn) [Compound 24]	38.1 mm	29.0 mm	3.2 mm	0 mm	24.2 mm	15.0 mm	5.9 mm	0 mm	34.8 mm	25.5 mm	6.1 mm	0 mm
CC(Cl)COP1(=S)OCC(C)S1 (stereo not drawn) [Compound 25]	38.8 mm	30.3 mm	1.0 mm	0 mm	26.0 mm	19.8 mm	7.8 mm	0 mm	33.8 mm	24.0 mm	6.5 mm	0 mm
CC(Br)COP1(=S)OCC(C)S1 (stereo not drawn) [Compound 26]	40.9 mm	32.1 mm	1.6 mm	0 mm	20.5 mm	18.8 mm	8.5 mm	0 mm	34.2 mm	21.1 mm	6.2 mm	0 mm
CC(I)COP1(=S)OCC(C)S1 (stereo not drawn) [Compound 27]	41.2 mm	28.6 mm	1.4 mm	0 mm	23.8 mm	17.5 mm	4.6 mm	0 mm	33.5 mm	22.4 mm	8.8 mm	0 mm
CC(Cl)C(C)OP1(=S)OCCS1 (stereo not drawn) [Compound 28]	33.6 mm	27.4 mm	0 mm	0 mm	18.2 mm	14.7 mm	5.7 mm	0 mm	34.2 mm	22.4 mm	4.8 mm	0 mm
CC(Br)C(C)OP1(=S)OCCS1 (stereo not drawn) [Compound 29]	31.9 mm	25.2 mm	1.2 mm	0 mm	25.0 mm	19.2 mm	8.0 mm	0 mm	33.2 mm	23.6 mm	6.5 mm	0 mm
CC(I)C(C)OP1(=S)OCCS1 (stereo not drawn) [Compound 30]	34.8 mm	30.0 mm	0 mm	0 mm	21.2 mm	20.0 mm	7.2 mm	0 mm	30.1 mm	26.7 mm	7.2 mm	0 mm
CC1COP(=S)(OC(C)C(C)Cl)S1 (stereo not drawn) [Compound 31]	37.4 mm	29.2 mm	4.0 mm	0 mm	23.6 mm	14.9 mm	9.0 mm	0 mm	36.0 mm	23.6 mm	8.1 mm	0 mm
CC1COP(=S)(OC(C)C(C)Br)S1 (stereo not drawn) [Compound 32]	38.9 mm	30.0 mm	3.2 mm	0 mm	19.4 mm	16.7 mm	7.2 mm	0 mm	31.2 mm	27.4 mm	7.2 mm	0 mm
CC1COP(=S)(OC(C)C(C)I)S1 (stereo not drawn) [Compound 33]	33.2 mm	26.4 mm	0 mm	0 mm	22.3 mm	20.7 mm	6.1 mm	0 mm	33.0 mm	21.3 mm	6.3 mm	0 mm
CC(CCl)OP1(=S)OC(C)C(C)S1 (stereo not drawn) [Compound 34, 2-(0-1'-methyl-2'-chloroethyl)-2-thio-4,5-dimethyl-1,3,2-oxathiophospholane]	34.6 mm	23.9 mm	1.3 mm	0 mm	19.7 mm	16.5 mm	4.9 mm	0 mm	30.3 mm	25.9 mm	5.7 mm	0 mm
CC(CBr)OP1(=S)OC(C)C(C)S1 (stereo not drawn) [Compound 35]	38.1 mm	25.7 mm	2.6 mm	0 mm	25.1 mm	14.7 mm	8.3 mm	0 mm	34.7 mm	27.1 mm	6.2 mm	0 mm
